{"source": "patent US11414677B2", "about": "“Methods and compositions for performing continuous directed evolution” (Massachusetts Institute of Technology, priority 2017, dated 2022)", "key": {"HEK293A cells": {"system": "HEK293A cells", "assay": "Resazurin assay to assess acute toxicity of common tissue culture antibiotics", "type": "cell-based, human", "conditions": "two-day treatment; for acute toxicity (cell viability by resazurin fluorescence): various concentrations", "method": "FIGS. 46A-46D. Resazurin assay to assess acute toxicity of common tissue culture antibiotics. HEK293A cells were treated for two days with either G418 (FIG. 46A), puromycin (FIG. 46B), blasticidin (FIG. 46C), or hygromycin (FIG. 46D), and cell viability was analyzed by resazurin fluorescence.\nA 96-well plate was seeded with HEK293A cells (˜15,000) and treated with either puromycin HCl (Corning), Hygromycin B (Thermo Fisher), Blasticidin S HCl (Thermo Fisher), or G418 (Enzo). Two days later, 10 μL of 0.1 mg/mL resazurin (MilliporeSigma) was added and incubated for 1.5 h. Media was transferred to a fresh 96-well plate and fluorescence was analyzed on a Bio-Tek Synergy H1 Hybrid Microplate Reader."}, "RFP.ΔAdPol.adenovirus": {"system": "RFP.ΔAdPol.adenovirus", "assay": "Time course of antibiotic inhibition of adenoviral replication", "type": "cell-based, Adenovirus type 5", "conditions": "treatment initiated 24 h post-infection", "excerpt": "FIGS. 47A-47B. Time-course of antibiotic-mediated inhibition of adenoviral infection. HEK293A cells expressing wild-type AdPol were infected with RFP.ΔAdPol.adenovirus and treated with either a) puromycin, or b) blasticidin at various time points post-infection (h.p.i.=hours post-infection). After 2 days, the infections were harvested and titered by flow cytometry. Titers are given in infectious units per milliliter (IU/mL), defined as the volume of adenoviral supernatant required to induce fluorescence in a cell as analyzed by flow cytometry. Dashed line represents the limit of detection (L.O.D) of the assay. Titers below this limit are inaccurate due to the percentage of infected cells being below the 1% error threshold of flow cytometry.\nRFP.ΔAdPol.adenovirus (TABLE 16) was used to infect a 24-well plate of wild-type AdPol cells (150,000 cells/well) (TABLE 17) at MOI=1, and either blasticidin or puromycin was added at various time points following the infection. Viral supernatants were harvested ˜48 h post-infection, and titered by flow cytometry as described above."}, "[1]": {"system": "ΔAdPol.adenovirus encoding either tTA or RFP", "assay": "tTA-induced resistance to antibiotic inhibition of adenoviral replication", "type": "cell-based, Adenovirus type 5", "conditions": "treatment 10 h post-infection", "method": "FIGS. 48A-48D. tTA-induced resistance to antibiotic mediated inhibition of adenoviral infection. Either wild-type AdPol cells, TRE3G.puroR cells, or TRE3G.blastR cells were infected with ΔAdPol.adenovirus encoding either tTA (+tTA) or RFP (−tTA). Ten hours post-infection, wild-type AdPol cells were treated with either puromycin (FIG. 48A) or (FIG. 48B) blasticidin, TRE3G.puroR cells were treated with puromycin (FIG. 48C), and TRE3G.blastR cells were treated with blasticidin (FIG. 48D). After 2, days, the infections were harvested and titered by flow cytometry. Titers are given in infectious units per milliliter (IU/mL), defined as the volume of adenoviral supernatant required to induce fluorescence in a cell as analyzed by flow cytometry. Dashed line represents the limit of detection (L.O.D) of the assay. Titers below this limit are inaccurate owing to the percentage of infected cells being below the 1% error threshold of flow cytometry.\nEither RFP.ΔAdPol.adenovirus, or tTA.mCherry.ΔAdPol.adenovirus (TABLE 16) was used to infect a 24-well plate of either wild-type AdPol cells, TRE3G.puroR cells, or TRE3G.blastR cells (150,000 cells/well) (TABLE 17) at MOI=1, and either puromycin or blasticidin was added 10 h post-infection. Viral supernatants were harvested ˜48 h post-infection, and titered by flow cytometry as described above."}, "[2]": {"system": "endogenous tTA operator (pLVX-TRE3G.eGFP reporter)", "assay": "Reverse genetics of tTA variants with pLVX-TRE3G.eGFP reporter in HEK293A cells", "type": "cell-based, human", "conditions": "transient co-transfection with eGFP reporter, presence or absence of 20 μM dox", "excerpt": "FIGS. 22A-22F. FIG. 22A. Serial-passaging schemes for evolving functional tTA variants that gain dox resistance in human cells. Two approaches to selection pressure were used, either with increasing dox concentrations (Trial 1) or a constant, moderate dox concentration (Trial 2). FIG. 22B. tTA-induced GFP expression in the presence of dox after each round of evolution for Trial 1. Phenotyping cells were infected with passaged viral populations and analyzed by flow cytometry. The percentage of infected GFP-positive cells at each passage in the presence of dox was normalized to the percentage of infected GFP-positive cells at each passage in the absence of dox. N.D.=not detectable owing to low viral titer. FIG. 22C. Non-reference allele frequencies for all mutations observed at >1% frequency over the course of the directed evolution experiment for Trial 1 (see FIG. 28 for Trial 2). […]\nHEK-293A cells were seeded in a 12-well plate at ˜4×10^5 cells/well. […] 48 h post-transfection, cells were analyzed by flow cytometry (see above for sample preparation). Promoter activity was calculated based on the mean fluorescence intensity of GFP fluorescence, backgated for only mCherry-expressing cells.\nHEK-293A cells were seeded in a 12-well plate (˜400,000 cells/well). […] 48 h post-transfection, samples were stained with 0.2 μg/mL DAPI, and analyzed on a BD LSR II analyzer."}, "[3]": {"system": "AdGLΔPol adenoviral genome", "assay": "Mutagenesis rate determination by serial passaging and deep sequencing of a 6.5 kb fragment", "type": "cell-based, Adenovirus type 5", "method": "The mutagenic potential of AdPol variants was evaluated following a previously reported protocol (Uil T. G. et al., Nucleic Acids Res. 39, e30 (2011)). Briefly, a polymerase-deleted Ad5, AdGLΔPol, was subjected to 10 serial passages on cultures of 911 cells (Fallaux F. J. et al., Hum. Gene Ther. 7, 215-222 (1996)) expressing EP-Pol in order to accumulate mutations. After 10 serial passages, 911 cells expressing wild-type AdPol were infected in a 6-well plate at ˜50 plaque-forming units/well in order to amplify pools of 50 viral clones for sequencing. Using pools of 50 or fewer clonal viruses ensured that mutations present in only one clone will be present at a frequency above the threshold of detection. From each 50-clone viral pool, a 6.5-kb fragment was amplified and prepared for deep sequencing. Libraries were subjected to 32 cycles of single-read sequencing by an Illumina Genome Analyzer II.\nThe mutagenic potential of EP-Pol was evaluated following a previously reported protocol (Uil T. G. et al., Nucleic Acids Res., 39(5): e30 (2011)). Briefly, a polymerase-deleted Ad5, AdGLΔAdPol, was subjected to 10 serial passages on cultures of 911 cells expressing EP-Pol in order to accumulate mutations. After 10 serial passages, 911 cells expressing wild-type AdPol were infected in a 6-well plate at ˜50 plaque-forming units/well in order to amplify pools of 50 viral clones for sequencing. Using pools of 50 or fewer clonal viruses ensures that mutations present in only one clone will be present at a frequency above the threshold of detection. From each 50-clone viral pool, a 6.5 kb fragment was amplified and prepared for deep sequencing. Libraries were subjected to 32 cycles of single-read sequencing by an Illumina Genome Analyzer II (GA-II)."}}, "note": "Marks after values point to notes of the source that are not given here.", "data": [{"molecule": "CN[C@@H]1[C@@H](O)[C@@H](O[C@@H]2[C@@H](O)[C@H](O[C@H]3O[C@H]([C@@H](C)O)[C@@H](O)[C@H](O)[C@H]3N)[C@@H](N)C[C@H]2N)OC[C@]1(C)O", "note": "[G418]", "values": [{"measurement": "acute toxicity (cell viability by resazurin fluorescence)", "setting": "HEK293A cells", "result": "only mildly toxic at the highest concentrations"}]}, {"molecule": "COc1ccc(C[C@H](N)C(=O)N[C@H]2[C@@H](O)[C@H](n3cnc4c(N(C)C)ncnc43)O[C@@H]2CO)cc1", "note": "[puromycin]", "values": [{"measurement": "dynamic range of inhibitory concentrations", "setting": "HEK293A cells", "result": "less than two orders of magnitude"}, {"measurement": "acute toxicity (cell viability by resazurin fluorescence)", "setting": "HEK293A cells", "result": "completely toxic"}, {"measurement": "inhibition of adenoviral replication", "setting": "RFP.ΔAdPol.adenovirus", "result": "Neither puromycin nor blasticidin were able to inhibit adenoviral replication"}, {"measurement": "effect on ΔAdPol.adenovirus replication", "setting": "[1]; TRE3G.puroR cell line", "result": "equally toxic to both tTA-expressing and RFP-expressing ΔAdPol.adenovirus"}, {"measurement": "effect on ΔAdPol.adenovirus replication", "setting": "[1]; wild-type AdPol cell line", "result": "inhibited both RFP-expressing and tTA-expressing ΔAdPol.adenovirus replication"}]}, {"molecule": "E147K: tTA variant with single amino acid substitution E147K, fixed in Trial 1", "values": [{"measurement": "dox-resistance of tTA variant", "setting": "[2]", "result": "confer dox-resistance"}]}, {"molecule": "H100Y: tTA variant with single amino acid substitution H100Y, fixed in Trial 2", "values": [{"measurement": "dox-resistance of tTA variant", "setting": "[2]", "result": "confer dox-resistance"}]}, {"molecule": "EP-Pol (protein, HA tag) MALAQAHRARRLHAEAPDSGDQPPRRRVRQQPTRAAPAPARARRRRAPAPSPGGSGAPPTSGGSPASPLLDASSKDTPAAHRPPRGTVVAPRGCGLLQAIDAATNQPLEIRYHLDLARALTRLCEVNLQELPPDLTPRELQTMDSSHLRDVVIKLRPPRADIWTLGSRGVVVRSTVTPLEQPDGQGQAAEVEDHQPNPPGEGLKFPLCFLVRGRQVNLVQDVQPVHRCQYCARFYKSQHECSARRRDFYFHHINSHSSNWWREIQFFPIGSHPRTERLFVTYDVETYTWMGAFGKQLVPFMLVMKFGGDEPLVTAARDLAANLGWDRWEQDPLTFYCITPEKMAIGRQFRTFRDHLQMLMARDLWSSFVASNPHLADWALSEHGLSSPEELTYEELKKLPSIKGIPRFLELYIVGHNINGYDEIVLAAQVINNRSEVPGPFRITRNFMPRAGKILFNDVTFALPNPRSKKRTDFLLWEQGGCDDTDFKYQYLKVMVRDTFALTHTSLRKAAQAYALPVEKGCCAYQAVNQFYMLGSYRSEADGFPIQEYWKDREEFVLNRELWKKKGQDKYDIIKETLDYCALDVQVTAELVNKLRDSYASFVRDAVGLTDASFNVFQRPTISSNSHAIFRQIVFRAEQPARSNLGPDLLAPSHELYDYVRASIRGGRCYPTYLGILREPLYVYDICGMYASALTHPMPWGPPLNPYERALAARAWQQALDLQGCKIDYFDARLLPGVFTVDADPPDETQLDPLPPFCSRKGGRLCWTNERLRGEVATSVDLVTLHNRGWRVHLVPDERTTVFPEWRCVAREYVQLNIAAKERADRAKNQTLRSIAKLLSNALYGSFATKLDNKKIVFSDQMDAATLKGITAGQVNIKSSSFLETDNLSAEVMPAFQREYSPQQLALADSDAEESEDERAPTPFYSPPSGTPGHVAYTYKPITFLDAEEGDMCLHTLERVDPLVDNDRYPSHLASFVLAWTRAFVSEWSEFLYEEDRGTPLEDRPLKSVYGDTDSLFVTERGHRLMETRGKKRIKKHGGNLVFDPERPELTWLVECETVCGACGADAYSPESVFLAPKLYALKSLHCPSCGASSKGKLRAKGHAAEGLDYDTMVKCYLADAQGEDRQRFSTSRTSLKRTLASAQPGAHPFTVTQTTLTRTLRPWKDMTLARLDEHRLLPYSESRPNPRNEEICWIEMPYPYDVPDYA", "values": [{"measurement": "Substitution load per million bp", "setting": "[3]; 6020 bp analyzed, 27.3 clones estimated", "result": 365, "unit": "per million bp"}, {"measurement": "mutations introduced into the genome", "setting": "[3]; adenoviral genome ~35 kb", "result": "~1.3 mutations per infected cell pe"}, {"measurement": "Substitutions per Ad genome per viral generation", "setting": "[3]; assuming a genome size of 36 kb, 27.3 genomes, 10 passages = 10 generations", "result": "1.31**"}, {"measurement": "mutation rate relative to the error rate of wild-type AdPol evaluated by the same method", "setting": "[3]; comparison with Uil et al. 2011", "result": "~370", "unit": "fold"}, {"measurement": "mutation rate", "setting": "[3]; next-generation sequencing of a 6.5 kb region in a small pool of passaged clones", "result": "approximately 3.7×10^−5 per base per cell infection cycle"}]}]}
